According to ChEMBL document CHEMBL3351447, “Design, synthesis and anticancer evaluation of tetrahydro-β-carboline-hydantoin hybrids” (Bioorg Med Chem Lett, 2014):
Active and inactive are the calls of the source. No cut-off for these calls is given here.

What was measured:
[1] = Cytotoxicity against human PC3 cells after 72 hrs by MTT assay; format: functional, cell-based; conditions: PC-3, 72 h
A549 = assay: Cytotoxicity against human A549 cells after 72 hrs by MTT assay; format: functional, cell-based; conditions: A549, 72 h
HeLa = assay: Cytotoxicity against human HeLa cells after 72 hrs by MTT assay; format: functional, cell-based
MCF7 = assay: Cytotoxicity against human MCF7 cells after 72 hrs by MTT assay; format: functional, cell-based; conditions: MCF7, 72 h
[2] = Cytotoxicity against human ME180 cells after 72 hrs by MTT assay; format: functional, cell-based; conditions: ME-180, 72 h
[3] = Selectivity index, ratio of IC50 for human RWPE cells to IC50 for human PC3 cells; format: functional
PC-3 [4] = assay: Induction of apoptosis in human PC3 cells assessed as early apoptotic cells at 3 uM after 48 hrs by orange/ethidium bromide staining based fluorescence microscopy; format: functional
PC-3 [5] = assay: Induction of cell cycle arrest in human PC3 cells assessed as accumulation at G2/M phase at 3 uM after 48 hrs by propidium iodide staining based flow cytometry (reference value: 20.9%); format: functional
PC-3 [6] = assay: Induction of cell cycle arrest in human PC3 cells assessed as accumulation at G2/M phase at 3 and 6 uM after 48 hrs by propidium iodide staining based flow cytometry; format: functional
PC-3 [7] = assay: Induction of cell cycle arrest in human PC3 cells assessed as accumulation at G2/M phase at 6 uM after 48 hrs by propidium iodide staining based flow cytometry (reference value: 20.9%); format: functional
PC-3 [8] = assay: Induction of apoptosis in human PC3 cells assessed as early apoptotic cells at 1 uM after 48 hrs by orange/ethidium bromide staining based fluorescence microscopy; format: functional
PC-3 [9] = assay: Induction of apoptosis in human PC3 cells assessed as induction of apoptotic body formation at 3 and 6 uM after 48 hrs by orange/ethidium bromide staining based fluorescence microscopy; format: functional, cell-based
PC-3 [10] = assay: Induction of apoptosis in human PC3 cells assessed as induction of chromatin condensation with destructive fragmentation of the nucleus at 3 and 6 uM after 48 hrs by orange/ethidium bromide staining based fluorescence microscopy; format: functional, cell-based
PC-3 [11] = assay: Induction of cell cycle arrest in human PC3 cells assessed as accumulation at S phase at 6 uM after 48 hrs by propidium iodide staining based flow cytometry (reference value: 15.8%); format: functional
PC-3 [12] = assay: Induction of apoptosis in human PC3 cells assessed as induction of cell shrinkage at 3 and 6 uM after 48 hrs by orange/ethidium bromide staining based fluorescence microscopy; format: functional
PC-3 [13] = assay: Induction of cell cycle arrest in human PC3 cells assessed as accumulation at G0/G1 phase at 3 uM after 48 hrs by propidium iodide staining based flow cytometry (reference value: 55%); format: functional
PC-3 [14] = assay: Induction of cell cycle arrest in human PC3 cells assessed as accumulation at G0/G1 phase at 6 uM after 48 hrs by propidium iodide staining based flow cytometry (reference value: 55%); format: functional
PC-3 [15] = assay: Induction of cell cycle arrest in human PC3 cells assessed as accumulation at S phase at 3 uM after 48 hrs by propidium iodide staining based flow cytometry (reference value: 15.8%); format: functional
PC-3 [16] = assay: Induction of apoptosis in human PC3 cells assessed as early apoptotic cells at 6 uM after 48 hrs by orange/ethidium bromide staining based fluorescence microscopy; format: functional
PC-3 [17] = assay: Induction of apoptosis in human PC3 cells assessed as induction of membrane blebbing at 3 and 6 uM after 48 hrs by orange/ethidium bromide staining based fluorescence microscopy; format: functional, cell-based

| SMILES | IC50 [1] | IC50 (A549) | IC50 (HeLa) | IC50 (MCF7) | IC50 [2] | other results |
| --- | --- | --- | --- | --- | --- | --- |
| COc1cc([C@@H]2c3[nH]c4ccccc4c3C[C@@H]3C(=O)N(c4cccc(C(F)(F)F)c4)C(=O)N23)ccc1O | 11.7 µM | 43.9 µM | 15.6 µM | 35.9 µM | 30.7 µM |  |
| COc1cccc2c1C(=O)c1c(O)c3c(c(O)c1C2=O)C[C@@](O)(C(=O)CO)C[C@@H]3O[C@H]1C[C@H](N)[C@H](O)[C@H](C)O1 [DOXORUBICIN] |  |  |  |  | 0.39 µM |  |
| COc1cc([C@@H]2c3cc4c(cc3[C@@H](O[C@@H]3O[C@@H]5CO[C@@H](C)O[C@H]5[C@H](O)[C@H]3O)[C@H]3COC(=O)[C@H]23)OCO4)cc(OC)c1O [ETOPOSIDE] | 14.4 µM | 50 µM | 4.71 µM |  | 8.9 µM | Ratio IC50 [3]: 2 |
| COc1cc([C@@H]2c3[nH]c4ccccc4c3C[C@H]3C(=O)N(c4cccc(C(F)(F)F)c4)C(=O)N23)ccc1O | 9.6 µM | > 100 µM | 11.4 µM | 48 µM | 27.4 µM | Ratio IC50 [3]: 1.6 |
| O=C1[C@@H]2Cc3c([nH]c4ccccc34)[C@@H](c3cccc(O)c3)N2C(=O)N1c1cccc(C(F)(F)F)c1 | 37.1 µM | > 100 µM | 31.9 µM | 70.9 µM | > 100 µM |  |
| O=C1[C@@H]2Cc3c([nH]c4ccccc34)[C@@H](c3cccc(O)c3)N2C(=O)N1CCCl | 49 µM | 68 µM | 60.3 µM | 48.2 µM | 59.5 µM |  |
| O=C1[C@@H]2Cc3c([nH]c4ccccc34)[C@@H](c3cccc(O)c3)N2C(=O)N1c1ccc(Cl)cc1 | 6.08 µM | 16 µM | 6.5 µM | 26 µM | 24.6 µM | Activity (PC-3 [4]): 25%; Activity (PC-3 [5]): 31.5%; fold change (FC) (PC-3 [6]): 1.63; Activity (PC-3 [7]): 34.1%; Activity (PC-3 [8]): 8%; Activity (PC-3 [9]): Active; Activity (PC-3 [10]): Active; Activity (PC-3 [11]): 11.8%; Activity (PC-3 [12]): Active; Ratio IC50 [3]: 5; Activity (PC-3 [13]): 43.9%; Activity (PC-3 [14]): 45.5%; Activity (PC-3 [15]): 15.8%; Activity (PC-3 [16]): 42.5%; Activity (PC-3 [17]): Active |
| O=C1[C@H]2Cc3c([nH]c4ccccc34)[C@@H](c3cccc(O)c3)N2C(=O)N1Cc1ccc(Br)cc1 | 9.13 µM | 35.4 µM | 11.2 µM | 27.9 µM | 17.5 µM | Ratio IC50 [3]: 1.7 |
| COc1cc([C@@H]2c3[nH]c4ccccc4c3C[C@@H]3C(=O)N(CCCl)C(=O)N23)ccc1O | 29.1 µM | > 100 µM | 33.1 µM | > 100 µM | > 100 µM |  |
| COc1cc([C@@H]2c3[nH]c4ccccc4c3C[C@H]3C(=O)N(CCCl)C(=O)N23)ccc1O | 35.5 µM | > 100 µM | 50 µM | 50.7 µM | > 100 µM |  |
| O=C1[C@@H]2Cc3c([nH]c4ccccc34)[C@@H](c3cccc(O)c3)N2C(=O)N1Cc1ccc(Br)cc1 | 8.9 µM | 34.8 µM | 24.3 µM | 24.9 µM | 88.6 µM | Ratio IC50 [3]: 1.9 |
| COc1cc([C@@H]2c3[nH]c4ccccc4c3C[C@@H]3C(=O)N(Cc4ccc(Br)cc4)C(=O)N23)ccc1O | 12 µM | > 100 µM | 84.3 µM | 19.9 µM | > 100 µM |  |
| COc1cc([C@@H]2c3[nH]c4ccccc4c3C[C@H]3C(=O)N(Cc4ccc(Br)cc4)C(=O)N23)ccc1O | > 100 µM | 77.5 µM | 82.9 µM | > 100 µM | > 100 µM |  |
| COc1cc([C@@H]2c3[nH]c4ccccc4c3C[C@@H]3C(=O)N(c4ccc(Cl)cc4)C(=O)N23)ccc1O | 13.4 µM | > 100 µM | 30.6 µM | 19.7 µM | > 100 µM |  |
| O=C1[C@H]2Cc3c([nH]c4ccccc34)[C@@H](c3cccc(O)c3)N2C(=O)N1c1cccc(C(F)(F)F)c1 | 11.2 µM | 40 µM | 13.6 µM | 42.6 µM | 22.6 µM |  |
| O=C1[C@H]2Cc3c([nH]c4ccccc34)[C@@H](c3cccc(O)c3)N2C(=O)N1CCCl | 22.3 µM | > 100 µM | 30.3 µM | > 100 µM | 48 µM |  |
| COc1cc([C@@H]2c3[nH]c4ccccc4c3C[C@H]3C(=O)N(c4ccc(Cl)cc4)C(=O)N23)ccc1O | 13.4 µM | > 100 µM | 30.3 µM | 42.2 µM | > 100 µM |  |
| O=C1[C@H]2Cc3c([nH]c4ccccc34)[C@@H](c3cccc(O)c3)N2C(=O)N1c1ccc(Cl)cc1 | 10.3 µM | 34.8 µM | 12.1 µM | 40.5 µM | 17 µM |  |
